# Patent publication US20250034196A1, “ESTER DERIVATIVES OF N4-HYDROXYCYTIDINE AND USE THEREOF” (priority 2021, published 2025)
# Legend:
# [1] = in vivo; parameters: species or system Beagle Dogs; details: dog, po, 10 mg/kg; for AUC(0-inf): AUCINF of EX-1/NHC/CH2018; for AUC(0-t): AUClast of EX-1/NHC/CH2018; for Cmax: Cmax of EX-1/NHC/CH2018; for half-life: T1/2 of EX-1/NHC/CH2018; for Tmax: Tmax of EX-1/NHC/CH2018
# Description: Example 174: Pharmacokinetic Study of EX-2 (CH2101), Molnupiravir (CH2017) and its Metabolite NHC (CH2018) Following a Single PO Administration of EX-2 (CH2101) or Molnupiravir (CH2017) in Male and Female Beagle Dogs
# Both test compounds were prepared in 1% methyl cellulose (400 cps, SIGMA, SLCF9694) solution in purified water.
# A total of 6 male+6 female Beagle Dogs, approximately 7-13 kg of bodyweight, were originally purchased from Marshall Biotechnology Co., Ltd. The animals were fasted overnight prior to dosing and food was re-provided after 4 hours post dosing.
# The animals were restrained manually, and approximately 1 mL of blood at each time point was collected into pre-cooled EDTA-K2 tubes via cephalic or saphenous veins. Blood samples were centrifuged at 4° C. (4000 rpm. 5 min) to obtain plasma within 30 min after sample collection. All samples were stored at approximately −80° C. until analysis. The backup samples will be discarded after the in vivo experiment has been completed for two months unless requested.
# [2] = in vitro; assay type: in vitro ADME; details: microsomes; for half-life at 1 µM: pH 7.4
# Description: (§1) Preparation of Solutions: Stock solution (10 mM) of each of test compounds was prepared in DMSO. The stock solution for each compound was then diluted into 100 μM with acetonitrile.
# (§2) Microsome Incubations: Incubation mixtures were prepared in a total volume of 200 μL with final component concentrations as follows: 0.1M PBS (pH 7.4), NADPH (2 mM) and liver microsomes (0.2 mg/mL) as well as test compound (1 μM) or Molnupiravir (1 μM) as a positive control, wherein the NADPH was added after a 5-min preincubation of all other components at 37° C. Pipette-mixed to achieve a homogenous suspension and immediately transferred 20 μL incubate as a 0 min sample to wells in a “Quenching” plate followed by adding 200 μL of acetonitrile with metolazone as IS and pipette-mixing. At 2, 5, 10, and 45 min, pipette-mixed the incubate and serially transfer samples of 20 μL incubate per time point to wells in a separate “Quenching” plate followed by adding 200 μL of acetonitrile with metolazone as IS and pipette-mixing.
# (§3) Sample Analysis: The 96-well plate was centrifuged at 6000 g for 10 min. The supernatant was injected onto the LC-MS/MS system for analysis.
# [3] = in vitro; assay type: in vitro ADME; details: plasma
# Description: as §1
# Plasma Incubations: Plasma incubations were conducted in duplicate in 96-well plate at 37° C. Plasma was prewarmed in a total volume of 198 μL for 5 min at 37° C., then added 2 μL of 100 μM test compound into an incubation well containing plasma, pipette-mixed to achieve a homogenous suspension and immediately transferred 20 μL incubate as a 0 min sample to wells in a “Quenching” plate followed by adding 200 μL of acetonitrile with metolazone as internal standard (IS) and pipette-mixing. At 2, 5, 60, and 90 min, pipette-mixed the incubate and serially transfer samples of 20 μL incubate per time point to wells in a separate “Quenching” plate followed by adding 200 μL of acetonitrile with metolazone as IS and pipette-mixing.
# as §3
# [4] = Microsome stability; assay type: in vitro ADME, Monkey; details: monkey, microsomes, pH 7.4
# Description: as §1, §2, §3
# [5] = system: SARS-CoV-2, Hongkong strain; assay type: in vivo, K18 hACE2 transgenic mice
# [6] = Remdesivir 25 mpk SC twice daily
smiles,measurement,setting,value
"O=c1nc(NO)ccn1[C@@H]1O[C@H](CO)[C@@H](O)[C@H]1O [EX-1/NHC/CH2018, NHC]",AUC(0-inf),"[1]; both sexes, beagle",9680 ng·h/mL
same,AUC(0-t),"[1]; both sexes, beagle",9580 ng·h/mL
same,Cmax,"[1]; both sexes, beagle",4780 ng/mL
same,half-life,"[1]; both sexes, beagle",227 min
same,Tmax,"[1]; both sexes, beagle",52.5 min
same,AUCmale/female of EX-1/NHC/CH2018,"[1]; both, Beagle",158%
same,AUCINF of EX-1/NHC/CH2018,"[1]; female, beagle",7683 ng·h/mL
same,AUClast of EX-1/NHC/CH2018,"[1]; female, beagle",7632 ng·h/mL
same,Cmax of EX-1/NHC/CH2018,"[1]; female, beagle",3940 ng/mL
same,T1/2 of EX-1/NHC/CH2018,"[1]; female, beagle",63.6 min
same,AUC(0-inf),"[1]; female, beagle",7310 ng·h/mL
same,AUC(0-t),"[1]; female, beagle",7220 ng·h/mL
same,Cmax,"[1]; female, beagle",4550 ng/mL
same,half-life,"[1]; female, beagle",76.8 min
same,Tmax,"[1]; female, beagle",60 min
same,AUCINF of EX-1/NHC/CH2018,"[1]; male, beagle",11046 ng·h/mL
same,AUClast of EX-1/NHC/CH2018,"[1]; male, beagle",10957 ng·h/mL
same,Cmax of EX-1/NHC/CH2018,"[1]; male, beagle",5240 ng/mL
same,T1/2 of EX-1/NHC/CH2018,"[1]; male, beagle",343 min
same,Tmax of EX-1/NHC/CH2018,"[1]; male, beagle",30 min
same,AUC(0-inf),"[1]; male, beagle",12700 ng·h/mL
same,AUC(0-t),"[1]; male, beagle",12500 ng·h/mL
same,Cmax,"[1]; male, beagle",5380 ng/mL
same,half-life,"[1]; male, beagle",425 min
same,Tmax,"[1]; male, beagle",60 min
CC(C)C(=O)ONc1ccn([C@@H]2O[C@H](CO)[C@@H](O)[C@H]2O)c(=O)n1 [EX-3],half-life at 1 µM,[2]; dog,33.8 min
same,half-life at 1 µM,[2]; human,13.5 min
same,half-life at 1 µM,[2]; mouse,6.8 min
same,half-life at 1 µM,[2]; rat,46.6 min
same,half-life at 1 µM,[3]; dog,21.2 min
same,half-life at 1 µM,[3]; human,2.8 min
same,half-life at 1 µM,[3]; monkey,3.2 min
same,half-life at 1 µM,[3]; mouse,0.6 min
same,half-life at 1 µM,[3]; rat,25.9 min
same,half-life at 1 µM,[4],4.4 min
O=C(ONc1ccn([C@@H]2O[C@H](CO)[C@@H](O)[C@H]2O)c(=O)n1)C1CC1 [EX-15],half-life at 1 µM,[2]; dog,132 min
same,half-life at 1 µM,[2]; human,67.3 min
same,half-life at 1 µM,[2]; mouse,15.4 min
same,T1/2,[2]; rat,∞
same,half-life at 1 µM,[3]; dog,109 min
same,half-life at 1 µM,[3]; human,5.8 min
same,half-life at 1 µM,[3]; monkey,16.5 min
same,half-life at 1 µM,[3]; mouse,5.2 min
same,half-life at 1 µM,[3]; rat,88.9 min
same,half-life at 1 µM,[4],25 min
COC(C)(C)C(=O)ONc1ccn([C@@H]2O[C@H](CO)[C@@H](O)[C@H]2O)c(=O)n1 [EX-53],half-life at 1 µM,[2]; dog,87.5 min
same,half-life at 1 µM,[2]; human,86.6 min
same,half-life at 1 µM,[2]; mouse,17.1 min
same,half-life at 1 µM,[2]; rat,70.5 min
same,half-life at 1 µM,[3]; dog,156 min
same,half-life at 1 µM,[3]; human,4.8 min
same,half-life at 1 µM,[3]; monkey,9.8 min
same,half-life at 1 µM,[3]; mouse,3.1 min
same,half-life at 1 µM,[3]; rat,94.3 min
same,half-life at 1 µM,[4],7.3 min
CCC(CC)COC(=O)[C@H](C)N[P@](=O)(OC[C@H]1O[C@@](C#N)(c2ccc3c(N)ncnn23)[C@H](O)[C@@H]1O)Oc1ccccc1 [Remdesivir],Survival proportions,"[5]; 14-day study, twice daily days 0-6, CH2101 450 mg/kg PO, Remdesivir 25 mg/kg SC",0%
same,Body weight loss observed from day,[5]; [6],2 days
same,Gross clinical symptoms appear from day,[5]; [6],6 days
same,Max clinical symptom score (mean value),[5]; [6],2
same,Prolonged survival time,"[5]; compared with vehicle group (group 1), Remdesivir 25 mg/kg SC",20%
same,"Virus titer in lung, comparison with Remdesivir group (mean difference)",[5]; day 5,2.47
same,Virus titer in lung,"[5]; day 5, plaque assay, mean, twice daily days 0-4, CH2101 450 mpk PO, Remdesivir 25 mpk SC",5.11 Log 10 plaque#/g lung
same,"Virus titer in lung, mean difference vs. group 1 (Vehicle group)","[5]; day 5, CH2101 450 mpk PO, Remdesivir 25 mpk SC",0.83 Log
same,Body weight change,"[5]; day 6, normalized to day 0, Remdesivir 25 mpk SC twice daily",−13.6%
same,Median survival time,"[5]; twice daily days 0-6, CH2101 450 mg/kg PO, Remdesivir 25 mg/kg SC",6 days
